Among the data in patent EP4737454A1, “GLP-1 RECEPTOR AGONIST, AND PREPARATION METHOD THEREFOR AND USE THEREOF” (Wayne Biotechnology Co., Ltd., priority 2023, dated 2025) are EC50 values, retold here.

Chain of Human GLP-1R (P43220 24-463): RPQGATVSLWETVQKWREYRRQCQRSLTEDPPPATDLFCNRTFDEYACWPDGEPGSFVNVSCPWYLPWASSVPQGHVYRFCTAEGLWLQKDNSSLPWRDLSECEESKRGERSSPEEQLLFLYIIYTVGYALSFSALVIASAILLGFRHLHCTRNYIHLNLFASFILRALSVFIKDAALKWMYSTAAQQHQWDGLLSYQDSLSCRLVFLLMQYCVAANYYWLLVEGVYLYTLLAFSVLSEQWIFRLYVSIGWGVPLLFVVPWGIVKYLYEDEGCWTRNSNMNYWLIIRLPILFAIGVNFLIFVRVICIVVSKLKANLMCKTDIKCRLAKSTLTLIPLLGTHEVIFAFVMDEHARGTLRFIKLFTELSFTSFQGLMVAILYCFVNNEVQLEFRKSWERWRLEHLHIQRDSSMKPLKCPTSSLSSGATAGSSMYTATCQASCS

The experiment concerns the target Human GLP-1R (Homo sapiens, UniProt P43220). In words: cAMP level determination in human GLP-1R stably transfected HEK293T cells (HTRF cAMP kit). It counts as cell-based. Particulars: 37°C 30 min. How it is done:
Human GLP-1R HEK293T stably transfected cells were digested with trypsin, terminated with DMEM total (without p/s), centrifuged and washed twice with 1X Stimulation buffer, then resuspended in 1X stimulation buffer and counted. The cells were then prepared as a 1 Million/mL cell suspension in stimulation buffer. Compound powder was first prepared as a 10 mM stock solution in DMSO, then diluted to 2 mM with DMSO, and further prepared as 2X compound in 1X stimulation buffer (Cisbio kit buffer with freshly added IBMX at a final concentration of 0.5 mM). The top dose final concentration was 2000 nM, with a final DMSO concentration of 0.2%, diluted in a 1:3 gradient for 11 gradients.
According to the layout, 5 µl of compound was added to each well; Min wells contained 100 nM GLP-1, and Max wells contained 0.2% DMSO in 1X stimulation buffer. 5 µl of cell suspension was added to each well, centrifuged at 300 rpm at room temperature for 1 min, then incubated at 37°C for 30 min. 2X cAMP standards were prepared in 1X Stimulation buffer, with a top final concentration of 2.8 µM, diluted in a 1:3 gradient for 12 doses. According to the layout, 10 µl was added to each well. Finally, d2 and antibody were diluted 20-fold in 1X Detection buffer (Cisbio kit buffer), and 5 µl of each was added to each well according to the layout. After centrifugation at 300 rpm at room temperature for 1 min, the plate was incubated at room temperature for 2 hr.
Stimulation% was calculated based on Min and Max readings (665nm/615nm ratio) using the formula: 100*(ratio Max well - ratio test well)/(ratio Max well - ratio Min well). The cAMP concentration in each test well was derived from the cAMP standard curve, and the data was analyzed using GraphPad Prism 9 to plot four-parameter fit curves and calculate EC50 values using the formula: Y=Bottom + (Top-Bottom)/(1+10^((LogEC50-X)*HillSlope)). Table 1: cAMP Level Determination in Human GLP-1R Stably Transfected HEK293T Cells
`Cc1cc(-n2nc3c(c2-n2ccn(-c4ccc(C(=O)N(C)C5CC5)c(OCC5CC5)c4)c2=O)[C@H](C)N(C(=O)c2cc4cc(C5CCOC(C)(C)C5)ccc4n2[C@@]2(c4nc(=O)o[nH]4)C[C@@H]2C)CC3)cc(C)c1F` (some centres unmarked) [Compound 43] displayed a concentration giving a half-maximal response (EC50) of 13.2 nM.

With `Cc1cc(-n2nc3c(c2-n2ccn(-c4ccc(C(=O)N(C)CC#N)cc4)c2=O)[C@H](C)N(C(=O)c2cc4cc(C5CCOC(C)(C)C5)ccc4n2[C@@]2(c4nc(=O)o[nH]4)C[C@@H]2C)CC3)cc(C)c1F` (some centres unmarked) [Compound 44], the midpoint of the response, the EC50, lay at 16.9 nM. For `Cc1cc(-n2nc3c(c2-n2ccn(-c4cccc(C(=O)N(C)C5CC5)c4)c2=O)[C@H](C)N(C(=O)c2cc4cc(C5CCOC(C)(C)C5)ccc4n2[C@@]2(c4nc(=O)o[nH]4)C[C@@H]2C)CC3)cc(C)c1F` (some centres unmarked) [Compound 45], the EC50 turned out to be 41 nM. As to `Cc1cc(-n2nc3c(c2-n2ccn(-c4ccc(C(=O)NC5CC5)cc4)c2=O)[C@H](C)N(C(=O)c2cc4cc(C5CCOC(C)(C)C5)ccc4n2[C@@]2(c4nc(=O)o[nH]4)C[C@@H]2C)CC3)cc(C)c1F` (some centres unmarked) [Compound 46], a half-maximal effect (EC50) was put at 77.9 nM. As to `Cc1cc(-n2nc3c(c2-n2ccn(-c4cccc(C(=O)NC5CC5)c4)c2=O)[C@H](C)N(C(=O)c2cc4cc(C5CCOC(C)(C)C5)ccc4n2[C@@]2(c4nc(=O)o[nH]4)C[C@@H]2C)CC3)cc(C)c1F` (some centres unmarked) [Compound 47], the response was half-maximal at 65.1 nM (EC50). `Cc1cc(-n2ccn(-c3c4c(nn3-c3cc(C)c(F)c(C)c3)CCN(C(=O)c3cc5cc([C@H]6CCOC(C)(C)C6)ccc5n3[C@@]3(c5nc(=O)o[nH]5)C[C@@H]3C)[C@H]4C)c2=O)ccc1C(=O)N(C)C1CC1` [Compound 50] registered an EC50 of 11.6 nM. Take `Cc1cc(-n2nc3c(c2-n2ccn(-c4ccc(C(=O)N(C)C5(C)CC5)c(F)c4)c2=O)[C@H](C)N(C(=O)c2cc4cc(C5CCOC(C)(C)C5)ccc4n2[C@@]2(c4nc(=O)o[nH]4)C[C@@H]2C)CC3)cc(C)c1F` (some centres unmarked) [Compound 51]: the EC50 worked out at 8.76 nM. The value for `Cc1cc(-n2nc3c(c2-n2ccn(-c4cc(F)c(C(=O)N(C)C5CC5)c(F)c4)c2=O)[C@H](C)N(C(=O)c2cc4cc(C5CCOC(C)(C)C5)ccc4n2[C@@]2(c4nc(=O)o[nH]4)C[C@@H]2C)CC3)cc(C)c1F` (some centres unmarked) [Compound 52] was 11 nM. With `Cc1cc(-n2nc3c(c2-n2ccn(-c4ccc(C(=O)N5CCC5)c(F)c4)c2=O)[C@H](C)N(C(=O)c2cc4cc(C5CCOC(C)(C)C5)ccc4n2[C@@]2(c4nc(=O)o[nH]4)C[C@@H]2C)CC3)cc(C)c1F` (some centres unmarked) [Compound 53], the half-maximal effective concentration (EC50) is 25.5 nM. In the case of `Cc1cc(-n2nc3c(c2-n2ccn(-c4ccc(C(=O)N(C)C5CC5)c(OC(F)(F)F)c4F)c2=O)[C@H](C)N(C(=O)c2cc4cc([C@H]5CCOC(C)(C)C5)ccc4n2[C@@]2(c4nc(=O)o[nH]4)C[C@@H]2C)CC3)cc(C)c1F` [Compound 54], the EC50 was found to be 4.48 nM.

Compound `Cc1cc(-n2nc3c(c2-n2ccn(-c4ccc5c(c4)CCN(C4CC4)C5=O)c2=O)[C@H](C)N(C(=O)c2cc4cc(C5CCOC(C)(C)C5)ccc4n2[C@@]2(c4nc(=O)o[nH]4)C[C@@H]2C)CC3)cc(C)c1F` (some centres unmarked) [Compound 55] displayed an EC50 of 8.07 nM.

Regarding `Cc1cc(-n2nc3c(c2-n2ccn(-c4ccc5c(c4)CCS5(=O)=O)c2=O)[C@H](C)N(C(=O)c2cc4cc([C@@H]5CCOC(C)(C)C5)ccc4n2[C@@]2(c4nc(=O)o[nH]4)C[C@@H]2C)CC3)cc(C)c1F` [Compound 56a], the midpoint of the response, the EC50, lay at 241 nM. `Cc1cc(-n2nc3c(c2-n2ccn(-c4ccc5c(c4)CCS5(=O)=O)c2=O)[C@H](C)N(C(=O)c2cc4cc([C@H]5CCOC(C)(C)C5)ccc4n2[C@@]2(c4nc(=O)o[nH]4)C[C@@H]2C)CC3)cc(C)c1F` [Compound 56b] gave an EC50 of 5.59 nM.

As for `Cc1cc(-n2nc3c(c2-n2ccn(-c4ccc5c(c4)S(=O)(=O)CC5)c2=O)[C@H](C)N(C(=O)c2cc4cc(C5CCOC(C)(C)C5)ccc4n2[C@@]2(c4nc(=O)o[nH]4)C[C@@H]2C)CC3)cc(C)c1F` (some centres unmarked) [Compound 57], the concentration for a half-maximal effect (EC50) turned out to be 15.8 nM. Compound `Cc1cc(-n2nc3c(c2-n2ccn(-c4ccc5c(c4)CCCS5(=O)=O)c2=O)[C@H](C)N(C(=O)c2cc4cc(C5CCOC(C)(C)C5)ccc4n2[C@@]2(c4nc(=O)o[nH]4)C[C@@H]2C)CC3)cc(C)c1F` (some centres unmarked) [Compound 58] gave a half-maximal effective concentration (EC50) of 9.93 nM.

The compound `Cc1cc(-n2nc3c(c2-n2ccn(-c4ccc5c(c4)S(=O)(=O)CCC5)c2=O)[C@H](C)N(C(=O)c2cc4cc(C5CCOC(C)(C)C5)ccc4n2[C@@]2(c4nc(=O)o[nH]4)C[C@@H]2C)CC3)cc(C)c1F` (some centres unmarked) [Compound 59] gave an EC50 of 15 nM. `Cc1cc(-n2nc3c(c2-n2ccn(-c4ccc5c(c4F)CCS5(=O)=O)c2=O)[C@H](C)N(C(=O)c2cc4cc(C5CCOC(C)(C)C5)ccc4n2[C@@]2(c4nc(=O)o[nH]4)C[C@@H]2C)CC3)cc(C)c1F` (some centres unmarked) [Compound 60] displayed an EC50 of 10.6 nM. As to `Cc1cc(-n2nc3c(c2-n2ccn(-c4cc5c(cc4F)S(=O)(=O)CC5)c2=O)[C@H](C)N(C(=O)c2cc4cc(C5CCOC(C)(C)C5)ccc4n2[C@@]2(c4nc(=O)o[nH]4)C[C@@H]2C)CC3)cc(C)c1F` (some centres unmarked) [Compound 61], the EC50 was determined as 10.8 nM. Take `Cc1cc(-n2nc3c(c2-n2ccn(-c4ccc5c(c4)C=CS5(=O)=O)c2=O)[C@H](C)N(C(=O)c2cc4cc(C5CCOC(C)(C)C5)ccc4n2[C@@]2(c4noc(=O)[nH]4)C[C@@H]2C)CC3)cc(C)c1F` (some centres unmarked) [Compound 62]: the response was half-maximal at 13.5 nM (EC50).

`Cc1cc(-n2nc3c(c2-n2ccn(-c4ccc5c(c4)C=CS5(=O)=O)c2=O)[C@H](C)N(C(=O)c2cc4cc([C@@H]5CCOC(C)(C)C5)ccc4n2[C@@]2(c4noc(=O)[nH]4)C[C@@H]2C)CC3)cc(C)c1F` [Compound 62a]: the EC50 was determined as 223 nM. Consider `Cc1cc(-n2nc3c(c2-n2ccn(-c4ccc5c(c4)C=CS5(=O)=O)c2=O)[C@H](C)N(C(=O)c2cc4cc([C@H]5CCOC(C)(C)C5)ccc4n2[C@@]2(c4noc(=O)[nH]4)C[C@@H]2C)CC3)cc(C)c1F` [Compound 62b], for which the EC50 turned out to be 4.53 nM. For `Cc1cc(-n2nc3c(c2-n2ccn(-c4ccc(N(C)C(=O)C5CC5)c(F)c4)c2=O)[C@H](C)N(C(=O)c2cc4cc(C5CCOC(C)(C)C5)ccc4n2[C@@]2(c4noc(=O)[nH]4)C[C@@H]2C)CC3)cc(C)c1F` (some centres unmarked) [Compound 63], the EC50 stood at 8.69 nM. For the compound `Cc1cc(-n2nc3c(c2-n2ccn(-c4ccc(N(C)C(=O)C5CC5)c(F)c4)c2=O)[C@H](C)N(C(=O)c2cc4cc([C@@H]5CCOC(C)(C)C5)ccc4n2[C@@]2(c4noc(=O)[nH]4)C[C@@H]2C)CC3)cc(C)c1F` [Compound 63a], it took 146 nM to reach a half-maximal effect (EC50). As for `Cc1cc(-n2nc3c(c2-n2ccn(-c4ccc(N(C)C(=O)C5CC5)c(F)c4)c2=O)[C@H](C)N(C(=O)c2cc4cc([C@H]5CCOC(C)(C)C5)ccc4n2[C@@]2(c4noc(=O)[nH]4)C[C@@H]2C)CC3)cc(C)c1F` [Compound 63b], the midpoint of the response, the EC50, lay at 6.4 nM. Take `Cc1cc(-n2nc3c(c2-n2ccn(-c4ccc(N(C)C5CC5)c(C(F)(F)F)c4)c2=O)[C@H](C)N(C(=O)c2cc4cc(C5CCOC(C)(C)C5)ccc4n2[C@@]2(c4nc(=O)o[nH]4)C[C@@H]2C)CC3)cc(C)c1F` (some centres unmarked) [Compound 64]: the midpoint of the response, the EC50, lay at 29 nM. Regarding `Cc1cc(-n2nc3c(c2-n2ccn(-c4ccc(N(C)C5CC5)cc4C(F)(F)F)c2=O)[C@H](C)N(C(=O)c2cc4cc(C5CCOC(C)(C)C5)ccc4n2[C@@]2(c4nc(=O)o[nH]4)C[C@@H]2C)CC3)cc(C)c1F` (some centres unmarked) [Compound 65], a half-maximal response (EC50) required 648 nM.

In turn, `Cc1cc(-n2nc3c(c2-n2ccn(-c4ccc(N(C)C5CC5)c(OC(F)(F)F)c4)c2=O)[C@H](C)N(C(=O)c2cc4cc(C5CCOC(C)(C)C5)ccc4n2[C@@]2(c4noc(=O)[nH]4)C[C@@H]2C)CC3)cc(C)c1F` (some centres unmarked) [Compound 66] showed an EC50 of 67.8 nM. Consider `Cc1cc(-n2nc3c(c2-n2ccn(-c4ccc(N(C)C5CC5)c(Cl)c4)c2=O)[C@H](C)N(C(=O)c2cc4cc(C5CCOC(C)(C)C5)ccc4n2[C@@]2(c4nc(=O)o[nH]4)C[C@@H]2C)CC3)cc(C)c1F` (some centres unmarked) [Compound 67], for which the EC50 turned out to be 67.8 nM.

`Cc1cc(-n2nc3c(c2-n2ccn(-c4ccc(N(C)C5CC5)c(Cl)c4)c2=O)[C@H](C)N(C(=O)c2cc4cc([C@@H]5CCOC(C)(C)C5)ccc4n2[C@@]2(c4noc(=O)[nH]4)C[C@@H]2C)CC3)cc(C)c1F` [Compound 67a] showed an EC50 of 51.4 nM. With `Cc1cc(-n2nc3c(c2-n2ccn(-c4ccc(N(C)C5CC5)c(Cl)c4)c2=O)[C@H](C)N(C(=O)c2cc4cc([C@H]5CCOC(C)(C)C5)ccc4n2[C@@]2(c4noc(=O)[nH]4)C[C@@H]2C)CC3)cc(C)c1F` [Compound 67b], the response was half-maximal at 11.2 nM (EC50). Under `Cc1cc(-n2nc3c(c2-n2ccn(-c4ccc(N(C)C5CC5)c(F)c4)c2=O)[C@H](C)N(C(=O)c2cc4cc(C5CCOC(C)(C)C5)ccc4n2[C@@]2(c4noc(=O)[nH]4)C[C@@H]2C)CC3)cc(C)c1F` (some centres unmarked) [Compound 68] stands 18 nM. In turn, `Cc1cc(-n2nc3c(c2-n2ccn(-c4ccc(N(C)C(=O)C5(C(F)(F)F)CC5)cc4)c2=O)[C@H](C)N(C(=O)c2cc4cc(C5CCOC(C)(C)C5)ccc4n2[C@@]2(c4noc(=O)[nH]4)C[C@@H]2C)CC3)cc(C)c1F` (some centres unmarked) [Compound 69] returned an EC50 of 10.3 nM.
